What was measured:
Type in all cases: in vivo
[1] = test system: velvetleaf (Abutilon theophrasti); assay: Test A preemergence; details: Abutilon theophrasti, pre-emergence, 240 h, 0 to 100 scale (0 no effect, 100 complete control), read-out: Plant response rating, Velvetleaf
Procedure, shortened: (§1)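 Each rating is a visual injury score from 0 to 100 given about 10 d after treatment, judged against untreated controls kept alongside in the greenhouse. In loam soil–sand blend, seeds got a preemergence directed soil spray, while postemergence plants were 2 to 10 cm tall at spraying.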

[2] = test system: crabgrass, large (Digitaria sanguinalis); assay: Test A preemergence; details: Digitaria sanguinalis, pre-emergence, 240 h, 0 to 100 scale (0 no effect, 100 complete control), read-out: Plant response rating, Crabgrass, Large
Procedure, shortened: as §1

corn (Zea mays) = assay: Test A preemergence; details: Zea mays, pre-emergence, 240 h, 0 to 100 scale (0 no effect, 100 complete control)
Procedure, shortened: as §1

[3] = test system: morningglory (Ipomoea spp.); assay: Test A preemergence; details: Ipomoea, pre-emergence, 240 h, 0 to 100 scale (0 no effect, 100 complete control), read-out: Plant response rating, Morningglory
Procedure, shortened: as §1

[4] = test system: wheat (Triticum aestivum); assay: Test A preemergence; details: Triticum aestivum, pre-emergence, 240 h, 0 to 100 scale (0 no effect, 100 complete control), read-out: Plant response rating, Wheat
Procedure, shortened: as §1

[5] = test system: velvetleaf (Abutilon theophrasti); assay: Test A postemergence; details: Abutilon theophrasti, post-emergence, 240 h, Postemergence
Procedure, shortened: as §1

[6] = test system: crabgrass, large (Digitaria sanguinalis); assay: Test A postemergence; details: Digitaria sanguinalis, post-emergence, 240 h, Postemergence
Procedure, shortened: as §1

[7] = test system: morningglory (Ipomoea spp.); assay: Test A postemergence; details: Ipomoea, post-emergence, 240 h, Postemergence
Procedure, shortened: as §1

O=C1NCC(c2ccccc2)C1C(=O)Nc1cccnc1 (stereo not shown) [Compound 1356]
0%: pest or weed control at 500 g/ha ([1]; 500 g ai/ha, preemergence) | pest or weed control at 125 g/ha ([1]; Preemergence, 125 g ai/ha) | pest or weed control at 500 g/ha ([2]; 500 g ai/ha, preemergence) | pest or weed control at 125 g/ha ([2]; Preemergence, 125 g ai/ha) | Corn plant response rating (crop injury, 0 = no effect, 100 = complete kill) at 500 g/ha (corn (Zea mays); 500 g ai/ha, preemergence) | Corn plant response rating (crop injury, 0 = no effect, 100 = complete kill) at 125 g/ha (corn (Zea mays); Preemergence, 125 g ai/ha) | pest or weed control at 500 g/ha ([3]; 500 g ai/ha, preemergence) | pest or weed control at 125 g/ha ([3]; Preemergence, 125 g ai/ha) | plant injury at 500 g/ha ([4]; 500 g ai/ha, preemergence) | plant injury at 125 g/ha ([4]; Preemergence, 125 g ai/ha) | pest or weed control at 125 g/ha ([5]; 125 g ai/ha, visual rating about 10 d after treatment, read-out: Velvetleaf plant response rating (0 to 100 scale)) | pest or weed control at 500 g/ha ([5]; 500 g ai/ha, visual injury, 0 to 100 scale (0 no effect, 100 complete control), approx. 10 d, read-out: Plant response rating, Velvetleaf) | pest or weed control at 125 g/ha ([6]; 125 g ai/ha, visual rating about 10 d after treatment, read-out: Crabgrass, Large plant response rating (0 to 100 scale)) | pest or weed control at 500 g/ha ([6]; 500 g ai/ha, visual injury, 0 to 100 scale (0 no effect, 100 complete control), approx. 10 d, read-out: Plant response rating, Crabgrass, Large) | pest or weed control at 125 g/ha ([7]; 125 g ai/ha, visual rating about 10 d after treatment, read-out: Morningglory plant response rating (0 to 100 scale)) | pest or weed control at 500 g/ha ([7]; 500 g ai/ha, visual injury, 0 to 100 scale (0 no effect, 100 complete control), approx. 10 d, read-out: Plant response rating, Morningglory)

Reference: US12077503B2, “Substituted cyclic amides and their use as herbicides” (FMC CORPORATION, priority 2015, dated 2024)
